Columns and labels:
BMP2 promoter = test: BMP-2 promoter luciferase reporter high throughput screening in 2T3-BMP-2-LUC cells; assay type: cell-based, mouse; conditions: at concentration of maximal activity, about 3 μM
From the text: A rapid throughput screening test for compounds capable of stimulating expression of a reporter gene linked to a BMP promoter (a surrogate for the production of bone morphogenetic factors that are endogenously produced) is described in U.S. application Ser. No. 08/458,434, filed Jun. 2, 1995, the entire contents of which are incorporated herein by reference. This assay is also described as a portion of a study of immortalized murine osteoblasts (derived from a mouse expressing a transgene composed of a BMP2 promoter driving expression of T-antigen) in Ghosh-Choudhery, N. et al. Endocrinology (1996) 137:331-39. […]
Briefly, the assay utilizes cells transformed permanently or transiently with constructs in which the promoter of a bone morphogenetic protein, specifically BMP2 or BMP4, is coupled to a reporter gene, typically luciferase. These transformed cells are then evaluated for the production of the reporter gene product; compounds that activate the BMP promoter will drive production of the reporter protein, which can be readily assayed. […]
The treated cells were incubated for 24 hours at 37° C. and 5% CO2. […] Luminescence was measured on an automated 96-well luminometer, and was expressed as either picograms of luciferase activity per well or as picograms of luciferase activity per microgram of protein. […]

ICR Swiss white mice = test: In vivo assay of effects of compounds on murine calvarial bone growth; design: species or system mouse; conditions: compared to vehicle control; subcutaneous injection over right calvaria, day 14
Method: Male ICR Swiss white mice, aged 4-6 weeks and weighing 13-26 gm, are employed, using 4-5 mice per group. The calvarial bone growth assay is performed as described in PCT application WO 95/24211, incorporated by reference. Briefly, the test compound or appropriate control vehicle is injected into the subcutaneous tissue over the right calvaria of normal mice. Typically, the control vehicle is the vehicle in which the compound was solubilzed, and is PBS containing 5% DMSO or is PBS containing Tween (2 μl/10 ml). The animals are sacrificed on day 14 and bone growth measured by histomorphometry. Bone samples for quantitation are cleaned from adjacent tissues and fixed in 10% buffered formalin for 24-48 hours, decalcified in 14% EDTA for 1-3 weeks, processed through graded alcohols, and embedded in paraffin wax. Three to five μm sections of the calvaria are prepared, and representative sections are selected for histomorphometric assessment of the effects on bone formation and bone resorption. Sections are measured by using a camera lucida attachment to trace directly the microscopic image onto a digitizing plate. Bone changes are measured on sections cut 200 μm apart, over 4 adjacent 1×1 mm fields on both the injected and noninjected sides of the calvaria. […]

TMC-23 cells = test: Alkaline phosphatase (ALP) activity in chondrogenic cell line TMC-23; assay type: cell-based, mouse; conditions: day 2, 10^-9 M, compared to vehicle control
Method: For measurement of alkaline phosphatase (ALP) activity, the technique of LF Bonewald et al. J Biol Chem (1992) 267:8943-49, was employed. Briefly, TMC-23 cells were plated in 96 well microtiter plates in DMEM containing 10% FCS at 4×10^3 cells/well. Two days after plating, the cells were confluent and the medium was replaced with fresh medium containing 10% FCS and different concentrations of compounds or recombinant BMP-2. After an additional 2 or 5 days incubation, the plates were washed twice with PBS, and then lysing solution (0.05% Triton X-100) was added (100 μl/well). The cells were lysed by three freeze-thaw cycles of −70° C. (30 min), followed by 37° C. (30 min with shaking). Twenty microliters of cell lysates were assayed with 80 μl of 5 mM p-nitrophenol phosphate in 1.5 M 2-amino-2-methyl-propanol buffer, pH 10.3 (Sigma ALP kit, Sigma Chemical Co., St. Louis, Mo.) for 10 min at 37° C. The reaction was stopped by the addition of 100 μl of 0.5 M NaOH. The spectrophotometric absorbance at 405 nm was compared to that of p-nitrophenol standards to estimate ALP activity in the samples. The protein content of the cell lysates was determined by the Bio-Rad protein assay kit (Bio-Rad, Hercules, Calif.). Specific activity was calculated using these two parameters.

Compound: c1ccc(N=NC2=NNc3ccccc3S2)cc1 [Compound 59-0008, 3-phenylazo-1H-4,1,2-benzothiadiazine]
- response (luciferase luminescence) (BMP2 promoter): approximately 175 light emission units
- increase in width of new calvarial bone (ICR Swiss white mice): 4 fold
- increase of ALP levels (TMC-23 cells): approximately 3 fold

— US6413998B1, “Compositions and methods for treating bone deficit conditions” (Osteoscreen, Inc., priority 1995, dated 2002)
